# Measurements from PMC10319141, “Imidazoquinolines with improved pharmacokinetic properties induce a high IFNα to TNFα ratio in vitro and in vivo” (Frontiers in Immunology, 2023).
# Like-named read-outs stand apart in the source and are kept apart here.
# How the values were obtained:
# [1] = tested on: TNFα and IFNα in peripheral plasma; assay: Cytokine profile in peripheral plasma after equimolar s.c. doses (Figure 4B, Table 2 top); format: in vivo, C57BL/6 mice; settings: for IFNα AUC / TNFα AUC: 8 h period, equimolar doses (top section), pooled plasma of 3 animals; for IFNα plasma levels over the study period: in words
# Procedure: (§1) Cytokine concentrations in samples were quantified either by ELISA (hTNFα, R&D Systems; hIFNα, Mabtech) or cytometric bead arrays (CBA, LegendPlex mouse anti-virus response panel, BioLegend) according to the manufacturer’s instructions. CBAs were acquired on a ZE5 Cell Analyzer (Bio-Rad) and analyzed using the LegendPlex Software Suite (Qognit/BioLegend). Absorbance of ELISA-samples was quantified using a Versamax microplate reader (Molecular Devices).
# (§2) Formulation. Test compounds were prepared for application in either 1% Tween 80, 9% PEG400 in ultrapure water (Biowest) (i.v., i.p., p.o. application) or 5 mM citric acid in 0.9% saline (Braun) (subcutaneous application). If compounds were administered subcutaneously, injections were carried out into the neck crease.
# (§3) Collection of Samples. Mice were bled from the tail vein at various timepoints. Heparin (Sigma) or K2-EDTA (Sigma) was added to blood samples to a final […] concentration of 10-15 Unit or 5 mM. Plasma was generated by centrifugation at 6800xg for 8 min at 4°C and stored at -80°C until analyzed by ELISA or CBA. Animals were sacrificed after the indicated time points by CO2 inhalation. Heart blood and organs for compound quantification by HPLC-MS/MS were collected post mortem and stored at –20°C until extracted as described above.
# (A) Organs were sampled 8 h after treatment and compound concentration was determined via HPLC-MS/MS. Data are presented as mean ± SD. (B) Cytokine levels in tail plasma over time were determined via cytometric bead array. At each sampling timepoint the plasma of mice in one treatment group was pooled.
# [2] = Compound concentrations in organs after activity-adjusted s.c. doses (Figure 5B); format: in vivo, C57BL/6 mice; settings: 3 µmol/kg s.c., 8 h post compound application; for concentration at 8 h: female, C57BL/6, mouse, sc
# Procedure: All samples were extracted with 3 or 6 volumes acetonitrile containing terbuthylazine as an internal standard (ACN) relative to either sample weight or volume. Liquid samples (plasma, culture medium, cell suspensions in stability experiments) were diluted in either 3 (culture medium, cell suspensions) or 6 (plasma) volumes ACN, pellet and blood samples were extracted by addition of ACN followed by sonication for 5 min. Organ samples were digested with 0.5 µg/mg Proteinase K (Genaxxon) for 1 h at 50°C before being homogenized using a Fastprep FP-24 5G instrument (MP-Biomedicals). Homogenates were diluted with 6 volumes ACN and homogenized again. All extracts were cleared by centrifugation at ~20.000xg for 10 min at 4°C.
# Quantification of analytes was performed on an Agilent 1260/1290 Infinity system fitted with an Agilent C18 Poroshell 120 column (4.6 x 50 mm, 2.7 µm) coupled to a triple quadrupole Sciex API 4000 MS/MS detector. The mobile phase was composed of water containing 0.1% formic acid (eluent A) and acetonitrile containing 0.1% formic acid (eluent B). Gradient used was: 5% B for 0.5 min, to 100% B in 4.5 min, 100% B for 2 min, to 5% B in 0.5 min, 5% for 2.5 min. MS detection parameters are listed in SI Table S1 .
# as §2, §3
# (§4) Compound concentration in (A) peripheral blood collected via tail bleeding before, 15, 30 60, 120, 240, 360 and 480 min after s.c. compound application and (B) organs collected after 8 h was assessed via HPLC-MS/MS. (A, B) Data are presented as mean ± SD. (C) Levels of TNFα and IFNα as well as (D) IL6, CXCL1, CCL2, IFNβ, IFNγ and IL10 in tail plasma over time were determined via cytometric bead array. Area under the curve (AUC) of each cytokine was plotted against compound concentration.
# Human peripheral blood = assay: Full blood stimulation assay (TNFα/IFNα by ELISA); format: cell-based; settings: 6 h, 8 donors, normalized to maximal concentration per donor; in words
# Procedure: Human peripheral blood of healthy donors was diluted in an equal volume of culture medium as described in 3.2, blood was treated with test compounds or controls at various concentrations and incubated at 37°C, 5% CO2 for 6 h. Cells were pelleted by centrifugation at 400xg for 5 min and supernatants were collected.
# as §1
# [3] = tested on: TNFα and IFNα in peripheral plasma; assay: Cytokine AUC in peripheral plasma after activity-adjusted s.c. doses (Figure 5C, Table 2 bottom); format: in vivo, C57BL/6 mice; settings: for IFNα AUC / TNFα AUC: 8 h period; for IFNα AUC / TNFα AUC / INFα AUC / TNFα AUC: doses adjusted to activity (bottom section); for dose ratio, times the molar dose of RSQ leading to comparable amounts of IFNα / dose ratio, times the molar dose of RSQ necessary to induce similar levels of TNFα: comparison of AUC, s.c.
# Procedure: as §1, §2, §3
# as §4, with “concentration. Data are represented as mean ± 95% confidence interval.” for “concentration.”
# [4] = kidney, read-out: concentration in kidney
# [5] = liver, read-out: concentration in liver
"concentration at 8 h [2, 4] [nM]","concentration at 8 h [2, 5] [nM]",Compound,IFNα AUC ([1]; 3 µmol/kg s.c.) [pg·min/mL],TNFα AUC ([1]; 3 µmol/kg s.c.) [pg·min/mL],IFNα AUC ([1]; 6 µmol/kg s.c.) [pg·min/mL],TNFα AUC ([1]; 6 µmol/kg s.c.) [pg·min/mL],IFNα AUC ([1]; 12 µmol/kg s.c.) [pg·min/mL],TNFα AUC ([1]; 12 µmol/kg s.c.) [pg·min/mL],"time of TNFα plasma peak post treatment ([1]; 3, 6, 12 µmol/kg s.c.) [min]","IFNα plasma levels over the study period ([1]; 3, 6, 12 µmol/kg s.c.)",relative IFNα induction in human blood (Human peripheral blood),IFNα AUC ([3]; 1 µmol/kg s.c.) [pg·min/mL],TNFα AUC ([3]; 1 µmol/kg s.c.) [pg·min/mL],INFα AUC / TNFα AUC ([3]; 1 µmol/kg s.c.),IFNα AUC ([3]; 3 µmol/kg s.c.) [pg·min/mL],TNFα AUC ([3]; 3 µmol/kg s.c.) [pg·min/mL],INFα AUC / TNFα AUC ([3]; 3 µmol/kg s.c.),IFNα AUC ([3]; 6 µmol/kg s.c.) [pg·min/mL],TNFα AUC ([3]; 6 µmol/kg s.c.) [pg·min/mL],INFα AUC / TNFα AUC ([3]; 6 µmol/kg s.c.),other results
2180,6030,CCCCc1nc2c(N)nc3ccccc3c2n1CCC1CCN(C(=O)CN(C)CC(=O)N(C)C2CC(C)OC(OC3C(C)C(OC4CC(C)(OC)C(O)C(C)O4)C(C)C(=O)OC(CC)C(C)(O)C(O)C(C)N(C)CC(C)CC3(C)O)C2O)CC1 (stereo not drawn) [A1-mac],420000,6900,920000,24000,3.1e+06,76000,90,stayed elevated over the 8 h period,robust and similar,33000,7200,5,300000,14000,22,1.6e+06,38000,42,"IFNα AUC ([3]; 12 µmol/kg s.c.): 1.9e+06 pg·min/mL; TNFα AUC ([3]; 12 µmol/kg s.c.): 65000 pg·min/mL; INFα AUC / TNFα AUC ([3]; 12 µmol/kg s.c.): 30; dose ratio, times the molar dose of RSQ leading to comparable amounts of IFNα [3]: 6-10 times; dose ratio, times the molar dose of RSQ necessary to induce similar levels of TNFα [3]: 30-40 times"
,,"CCOCc1nc2c(N)nc3ccccc3c2n1CC(C)(C)O [RSQ, Resiquimod, reference compound]",2.2e+06,330000,780000,280000,800000,260000,90,,,1.1e+06,120000,,970000,150000,,,,,"TNFα plasma AUC, times larger than the area for any A1 or A1-mac treated group ([1]; 3 µmol/kg RSQ s.c.): about 4 times; peak TNFα concentrations, times higher than in A1 or A1-mac groups ([1]; 3, 6, 12 µmol/kg s.c.): over 10 times; time at which TNFα and IFNα plasma levels fall close to baseline ([1]; 3, 6, 12 µmol/kg s.c.): 240 min; time of IFNα plasma peak post treatment ([1]; 3, 6, 12 µmol/kg s.c.): 90 min; time of maximal IFNα plasma levels post application ([1]; abstract, in vivo murine): 1 h; concentration in liver [2]: < LLOQ; TNFα concentrations in supernatants of human blood (Human peripheral blood): highest TNFα concentrations; IFNα AUC ([3]; 0.1 µmol/kg s.c.): 110000 pg·min/mL; TNFα AUC ([3]; 0.1 µmol/kg s.c.): 17000 pg·min/mL; IFNα AUC ([3]; 0.3 µmol/kg s.c.): 560000 pg·min/mL; TNFα AUC ([3]; 0.3 µmol/kg s.c.): 50000 pg·min/mL"
469,45,CCCCc1nc2c(N)nc3ccccc3c2n1CCC1CCNCC1 [A1],660000,6500,1.3e+06,17000,2.5e+06,35000,120,stayed elevated over the 8 h period,robust and similar,70000,9700,7,490000,11000,44,1.1e+06,20000,58,"IFNα AUC ([3]; 12 µmol/kg s.c.): 1.9e+06 pg·min/mL; TNFα AUC ([3]; 12 µmol/kg s.c.): 44000 pg·min/mL; INFα AUC / TNFα AUC ([3]; 12 µmol/kg s.c.): 44; dose ratio, times the molar dose of RSQ leading to comparable amounts of IFNα [3]: 6-10 times; dose ratio, times the molar dose of RSQ necessary to induce similar levels of TNFα [3]: 30-40 times"
